The text below walks through data of patent US10597388B2, “Pyridazinone herbicides” (FMC CORPORATION, priority 2014, dated 2020).

Like-named read-outs stand apart in the source and are kept apart here.

Common to all, as to type: in vivo
Experiment [1] has as its system bromegrass, downy (downy bromegrass, Bromus tectorum). Briefly: Test D controlled growth environment herbicide test, pre- and postemergence. To be noted: for Bromegrass, Downy plant response rating / Plant response rating (scale of 0 to 100), Bromegrass, Downy: 31 g ai/ha. Summed up: (§1)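 Species sown in silt loam and sprayed preemergence, or grown in peat-based medium to 2–18 cm (1- to 4-leaf stage) and sprayed postemergence, with compounds in non-phytotoxic solvent plus surfactant. Visual injury scored versus controls after 14–21 d in a controlled environment, 0 (no effect) to 100 (complete control).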

Experiment [2] relates to wild poinsettia (Euphorbia heterophylla). Briefly: Test E greenhouse herbicide test, pre- and postemergence. Summed up: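 Pre- and postemergence sprays, same solvent–surfactant formulation. Substrate: silt loam (pre), peat-based mix (post, 1–4 leaf, 2–18 cm). Readout: visual control rating 0–100 against controls at 14–21 d.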
In experiment [3] the test system is momingglory (Ipomoea spp.). Briefly: Test A greenhouse herbicide test, pre- and postemergence. To be noted: 240 h; for pest or weed control at 1000 g/ha: 1000 g ai/ha; for pest or weed control at 1000 g/ha / pest or weed control at 500 g/ha: 0 to 100 scale; for pest or weed control at 125 g/ha: 125 g ai/ha; for pest or weed control at 500 g/ha: 500 g ai/ha. Summed up: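 Seeds in loam–sand blend received a preemergence directed soil spray; plants at 2–10 cm, one- to two-leaf stage, received postemergence sprays. Compounds in a non-phytotoxic solvent with surfactant. After about 10 d in a greenhouse, injury rated visually versus untreated controls on a 0–100 scale (100 = complete control).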

Experiment [4] has as its system geranium, cutleaf (cutleaf geranium, Geranium dissectum). Briefly: Test D controlled growth environment herbicide test, pre- and postemergence. Summed up: as §1
Experiment [5] has as its system Canada thistle (Cirsium arvense). Described as above. Summed up:
as §1

Where [6] appears, read: Postemergence, scale 0 to 100 (0 no effect, 100 complete control).
[7] abbreviates: Postemergence, 125 g ai/ha, visual rating on scale 0 (no effect) to 100 (complete control), 14 to 21 d.
Where [8] appears, read: Postemergence, 250 g ai/ha, scale 0 to 100 (0 no effect, 100 complete control).
Where [9] appears, read: Preemergence, 62 g ai/ha, scale 0 to 100 (0 no effect, 100 complete control).
[10] abbreviates: Preemergence, 125 g ai/ha, scale 0 to 100 (0 no effect, 100 complete control).
[11] abbreviates: Preemergence, 250 g ai/ha, scale 0 to 100 (0 no effect, 100 complete control).
Where [12] appears, read: postemergence, 62 g ai/ha, scale 0 to 100, 0 no effect, 100 complete control.
The mark [13] stands for this setting: 62 g ai/ha, Postemergence, scale 0 to 100 (0 no effect, 100 complete control).
The mark [14] stands for this setting: 125 g ai/ha, Postemergence, scale 0 to 100 (0 no effect, 100 complete control).
The mark [15] stands for this setting: 125 g ai/ha, Preemergence, scale 0 to 100 (0 no effect, 100 complete control).
The mark [16] stands for this setting: 250 g ai/ha, Postemergence, scale 0 to 100 (0 no effect, 100 complete control).
Setting [17] is: Postemergence, 31 g ai/ha, visual, scale 0 no effect to 100 complete control.
Setting [18] is: Preemergence, 31 g ai/ha, scale 0 to 100, 0 no effect, 100 complete control.
Setting [19] is: Preemergence, 250 g ai/ha, visual, scale 0 no effect to 100 complete control.
[20] abbreviates: post-emergence, Postemergence, 0 is no effect, 100 is complete control, read-out: Morningglory plant response rating.
The mark [21] stands for this setting: pre-emergence, Preemergence, 0 no effect, 100 complete control, read-out: Plant response rating, Morningglory.
Where [22] appears, read: Postemergence, 31 g ai/ha, scale 0 to 100 (0 no effect, 100 complete control).

`Cc1ccc2sc(C)c(-c3c(O)c(C)nn(C)c3=O)c2c1` [Compound 1, 4-(2,5-dimethylbenzo[b]thien-3-yl)-5-hydroxy-2,6-dimethyl-3(2H)-pyridazinone]: in experiment [1] (setting [6]), the “Bromegrass, Downy plant response rating” value is reported as 0. In addition, the “Plant response rating, Bromegrass, Downy” value in experiment [1] (setting [7]) turned out to be 10; in experiment [1] (setting [8]), 20; in experiment [1] (setting [9]), 25; in experiment [1] (setting [10]), 70; in experiment [1] (setting [11]), 70; in experiment [1] (setting [12]), 10. Besides, the “Plant response rating (scale of 0 to 100), Bromegrass, Downy” value in experiment [1] (Preemergence) was 20. For the same compound, the “Plant response rating, Poinsettia, Wild” value is 15 in experiment [2] (setting [13]); 30 in experiment [2] (62 g ai/ha, Preemergence, scale 0 to 100 (0 no effect, 100 complete control)); 15 in experiment [2] (setting [14]); 30 in experiment [2] (setting [15]); 35 in experiment [2] (setting [16]); 5 in experiment [2] (Postemergence, 16 g ai/ha, visual, scale 0 no effect to 100 complete control). For the same compound, the “Plant response rating, Poinsettia, Wild” value in experiment [2] (setting [17]) amounted to 10; in experiment [2] (Preemergence, 16 g ai/ha, scale 0 to 100, 0 no effect, 100 complete control), 20; in experiment [2] (setting [18]), 30; in experiment [2] (setting [19]) it was 35. Also, the results for the pest or weed control at 1000 g/ha in experiment [3] (setting [20]) and in experiment [3] (setting [21]) were 100% and 90%, respectively.

Regarding `Cc1nn(C)c(=O)c(-c2c(C)oc3c(C)cccc23)c1O` [Compound 9, 4-(2,7-dimethyl-3-benzofuranyl)-5-hydroxy-2,6-dimethyl-3(2H)-pyridazinone], the pest or weed control at 125 g/ha in experiment [3] (post-emergence, Postemergence, visual rating after approx. 10 d, 0 to 100 scale (0 no effect, 100 complete control), read-out: Plant response rating, Morningglory) was determined as 40%; in experiment [3] (pre-emergence, Preemergence, 0 to 100 scale where 0 is no effect and 100 is complete control, read-out: Morningglory plant response rating), 0%. Moreover, the pest or weed control at 500 g/ha in experiment [3] (setting [20]) came out at 80%; in experiment [3] (setting [21]), 0%.

For `CC(=O)Oc1c(C)nn(C)c(=O)c1-c1c(C)cc(C)c2ccccc12` [Compound 153], the “Bromegrass, Downy plant response rating” value in experiment [1] (setting [6]) is 25. Also, the “Plant response rating, Bromegrass, Downy” value in experiment [1] (setting [7]) came out at 65; in experiment [1] (setting [8]) it was 70; in experiment [1] (setting [9]), 75; in experiment [1] (setting [10]), 85; in experiment [1] (setting [11]), 95; in experiment [1] (setting [12]), 35. Moreover, in experiment [1] (Preemergence), the “Plant response rating (scale of 0 to 100), Bromegrass, Downy” value was 75. The “Geranium, Cutleaf plant response rating” value in experiment [4] (setting [22]) came to 75. The “Plant response rating, Geranium, Cutleaf” value in experiment [4] (setting [7]) is 90; in experiment [4] (setting [8]), 98; in experiment [4] (setting [10]), 85; in experiment [4] (setting [11]), 90; in experiment [4] (setting [12]), 90. Further, the “Plant response rating (scale of 0 to 100), Geranium, Cutleaf” value is reported as 35 in experiment [4] (Preemergence, 31 g ai/ha) and 75 in experiment [4] (Preemergence, 62 g ai/ha). Moreover, in experiment [5] (setting [22]), the “Canada Thistle plant response rating” value turned out to be 98. The “Plant response rating, Canada Thistle” value in experiment [5] (setting [7]) was determined as 100; in experiment [5] (setting [8]), 100; in experiment [5] (setting [9]) it was 100; in experiment [5] (setting [10]) it was 100; in experiment [5] (setting [11]) it was 100; in experiment [5] (setting [12]) it was 98. Besides, the “Plant response rating (scale of 0 to 100), Canada Thistle” value in experiment [5] (Preemergence, 31 g ai/ha) turned out to be 100. The “Plant response rating, Poinsettia, Wild” value was 30 in experiment [2] (setting [13]); 50 in experiment [2] (setting [14]); 60 in experiment [2] (setting [15]); 75 in experiment [2] (setting [16]); 20 in experiment [2] (setting [17]); 40 in experiment [2] (setting [18]). Further, the “Plant response rating, Poinsettia, Wild” value in experiment [2] (setting [19]) worked out at 75; in experiment [2] (Preemergence, scale 0 to 100, 0 no effect, 100 complete control), 50.
